According to ChEMBL document CHEMBL1201862, “PubChem BioAssay data set” (2004):
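How tested: cells in 96-well plates exposed to compound for 48 hours at five concentrations. GI50 = concentration required for 50% inhibition of growth.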 The source made the active and inactive calls. Rule as the data show it: active = GI50 up to about 1.1 µM and inactive = higher.

Key:
Test in all cases: NCI tumour cell line growth inhibition, 48 h
DMS-273 = test system: DMS-273
HCT-116 = test system: HCT-116
MOLT-4 = test system: MOLT-4
ACHN = test system: ACHN
DLD-1 = test system: DLD-1
SF-539 = test system: SF-539
COLO 205 = test system: COLO 205
UACC-257 = test system: UACC-257
K562 = test system: K562
EKVX = test system: EKVX
HL-60 = test system: HL-60
SW-620 = test system: SW-620
SK-MEL-2 = test system: SK-MEL-2
UO-31 = test system: UO-31
IGROV-1 = test system: IGROV-1
DMS-114 = test system: DMS-114
786-0 = test system: 786-0
SNB-19 = test system: SNB-19
A549 = test system: A549
UACC-62 = test system: UACC-62
LOX IMVI = test system: LOX IMVI
RXF 631 = test system: RXF 631
LXFL 529 = test system: LXFL 529
NCI-H522 = test system: NCI-H522
NCI-H226 = test system: NCI-H226
M19-MEL = test system: M19-MEL
HCC 2998 = test system: HCC 2998
CCRF-CEM = test system: CCRF-CEM
RPMI-8226 = test system: RPMI-8226
SK-MEL-5 = test system: SK-MEL-5
SNB-75 = test system: SNB-75
SF-268 = test system: SF-268
HCT-15 = test system: HCT-15
CAKI-1 = test system: CAKI-1
KM-20L2 = test system: KM-20L2
OVCAR-8 = test system: OVCAR-8
KM12 = test system: KM12
SN12C = test system: SN12C
XF498 = test system: XF498
NCI-H23 = test system: NCI-H23
U-251 = test system: U-251
TK-10 = test system: TK-10
SR = test system: SR
OVCAR-4 = test system: OVCAR-4
Malme-3M = test system: Malme-3M
SF-295 = test system: SF-295
OVCAR-5 = test system: OVCAR-5
HOP-92 = test system: HOP-92
HOP-62 = test system: HOP-62
HT-29 = test system: HT-29
SK-OV-3 = test system: SK-OV-3
SNB-78 = test system: SNB-78
SK-MEL-28 = test system: SK-MEL-28
M14 = test system: M14
OVCAR-3 = test system: OVCAR-3
NCI-H460 = test system: NCI-H460
A498 = test system: A498

Measured: GI50

O=C1c2ccccc2C(=O)N1C/C=N/NS(=O)(=O)c1ccc(F)cc1
inactive: DMS-273 > 100 µM | HCT-116 > 100 µM | MOLT-4 > 100 µM | ACHN > 100 µM | DLD-1 > 100 µM | SF-539 > 100 µM | COLO 205 > 100 µM | UACC-257 > 100 µM | K562 > 100 µM | EKVX > 100 µM | HL-60 > 100 µM | SW-620 > 100 µM | SK-MEL-2 > 100 µM | UO-31 > 100 µM | IGROV-1 > 100 µM | DMS-114 > 100 µM | 786-0 > 100 µM | SNB-19 > 100 µM | A549 > 100 µM | UACC-62 > 100 µM | LOX IMVI > 100 µM | RXF 631 > 100 µM | LXFL 529 > 100 µM | NCI-H522 > 100 µM | NCI-H226 > 100 µM | M19-MEL > 100 µM | HCC 2998 > 100 µM | CCRF-CEM > 100 µM | RPMI-8226 > 100 µM | SK-MEL-5 > 100 µM | SNB-75 59 µM | SF-268 > 100 µM | CAKI-1 > 100 µM | KM-20L2 > 100 µM | OVCAR-8 > 100 µM | KM12 > 100 µM | SN12C > 100 µM | XF498 > 100 µM | NCI-H23 > 100 µM | U-251 > 100 µM | TK-10 > 100 µM | SR > 100 µM | OVCAR-4 > 100 µM | Malme-3M > 100 µM | SF-295 > 100 µM
> 100 µM: HCT-15

Cc1ccccc1NC(=O)CC(=O)N1N=C(N2c3ccccc3Sc3ccccc32)CC1c1ccccc1 (configuration not stated)
inactive: DMS-273 > 100 µM | HCT-116 > 100 µM | MOLT-4 > 100 µM | ACHN > 100 µM | DLD-1 > 100 µM | SF-539 > 100 µM | COLO 205 > 100 µM | UACC-257 > 100 µM | OVCAR-5 > 100 µM | EKVX > 100 µM | SW-620 > 100 µM | UO-31 > 100 µM | HOP-92 > 100 µM | IGROV-1 > 100 µM | HOP-62 > 100 µM | DMS-114 > 100 µM | HT-29 > 100 µM | SNB-19 > 100 µM | SK-OV-3 > 100 µM | A549 > 100 µM | SNB-78 > 100 µM | UACC-62 > 100 µM | LOX IMVI > 100 µM | RXF 631 > 100 µM | SK-MEL-28 > 100 µM | M14 > 100 µM | OVCAR-3 > 100 µM | LXFL 529 > 100 µM | NCI-H226 > 100 µM | M19-MEL > 100 µM | HCC 2998 > 100 µM | NCI-H460 > 100 µM | RPMI-8226 > 100 µM | SK-MEL-5 > 100 µM | SNB-75 > 100 µM | SF-268 > 100 µM | CAKI-1 > 100 µM | KM-20L2 > 100 µM | OVCAR-8 > 100 µM | KM12 > 100 µM | SN12C > 100 µM | XF498 > 100 µM | NCI-H23 > 100 µM | U-251 > 100 µM | TK-10 > 100 µM | SR > 100 µM | OVCAR-4 > 100 µM | A498 > 100 µM | Malme-3M > 100 µM | SF-295 > 100 µM
> 100 µM: HCT-15
